Each block holds one compound with its values, some of them ahead of it.
How the values were obtained:
[1] = target: BSA (bovine albumin serum) (Bos taurus, UniProt P02769); assay: Protein (albumin) denaturation assay; settings: maximum inhibition; compounds tested at 50-200 µg/mL, diclofenac 100 µg/mL
Experimental: Mizushima and Kobayashi’s technique was employed for the determination of in vitro anti-inflammatory activity by the protein denaturation method for the synthesized compounds. […] Then, a mixture of 500µL of 1% aqueous solution of BSA (bovine albumin serum) and 1.4 mL of phosphate buffer saline (PBS, pH 7.4) was added to 100 µL of varying concentrations of the synthesized compounds 50, 100, and 200 µg/mL. […] The mixtures are then incubated for 15 min at 37 °C and then heated for 10 min at 60 °C. The absorbance was measured at 660nm (SHIMADZU, UV-1800 Spectrophotometer) upon cooling. […] The entire experiment was done in triplicate, and the average was calculated. % inhibition of protein denaturation was calculated by: % inhibition=Absorbance of Control−Absorbance of Sample/Absorbance of Control×100
The anti-inflammatory capacity of the target compound was evaluated using the protein denaturation assay.

Human COX-2 = target: T1, Human COX-2 (Homo sapiens, UniProt P35354); assay: In vitro COX-2 enzymatic assay (Cayman COX (human) Inhibitor Screening Assay Kit); type: biochemical; settings: human COX-2
T1 construct: purchased Cayman Chemicals 701230
T1 sequence (P35354 18-604): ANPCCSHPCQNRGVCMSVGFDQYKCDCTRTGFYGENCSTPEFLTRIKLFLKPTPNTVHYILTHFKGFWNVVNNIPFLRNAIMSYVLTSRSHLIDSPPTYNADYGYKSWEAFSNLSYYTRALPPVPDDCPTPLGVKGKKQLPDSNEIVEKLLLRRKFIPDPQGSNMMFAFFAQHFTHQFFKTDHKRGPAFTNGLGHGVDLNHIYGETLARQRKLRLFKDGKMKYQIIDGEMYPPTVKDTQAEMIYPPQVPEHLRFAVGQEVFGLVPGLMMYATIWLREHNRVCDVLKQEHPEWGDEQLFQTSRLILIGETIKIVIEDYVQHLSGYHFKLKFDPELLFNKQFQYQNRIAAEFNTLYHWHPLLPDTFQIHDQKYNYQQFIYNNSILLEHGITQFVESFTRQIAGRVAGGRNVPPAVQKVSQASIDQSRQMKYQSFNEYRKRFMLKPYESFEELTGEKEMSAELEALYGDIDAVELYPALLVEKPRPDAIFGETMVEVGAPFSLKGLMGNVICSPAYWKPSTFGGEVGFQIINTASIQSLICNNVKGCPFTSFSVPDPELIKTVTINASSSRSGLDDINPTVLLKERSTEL
Experimental: The ability of the compounds to inhibit COX -2 (IC50 values, µM) was determined by using a “COX (human) Inhibitor Screening Assay Kit” procured from Cayman Chemicals (catalog number 701230). With a slight modification in the method as defined in the reference, the COX-2 inhibition assay was performed. Using the percent conversion of arachidonic acid (AA) to PGH2, the enzyme activity was calculated. By enzyme immunoassay PGF2α, which is produced from PGH2 by reduction with stannous chloride, is calculated. The test compounds’ stock solutions are prepared by dissolving in a minimum amount of DMSO. Human COX-2 (10 µL) in the presence of 10 µL of heme was suspended in 0.1M Tris-HCl buffer (pH 8.0) which contains 2 mM phenol and 5 mM EDTA. This was added to various concentrations of test compounds and, on incubating the solutions at 37 °C for 5 min, 10 µL of AA solution were added. Later, the COX reaction was stopped by adding 1M HCl (50 µL) after 2 min. The intensity of the yellow color which is produced as the product of the enzymatic reaction is determined spectrophotometrically. The percent inhibition was calculated by comparing the compound treated to different control incubations. […] The determinations are done in triplicate and the IC50 (µM) was determined using the concentration–inhibition response curve.
During the initiation of the inflammatory process, the COX enzyme plays a vital role in the progression of inflammatory response. The inflammatory mediators that arise due to the action of COX lead to the chemoattraction of neutrophils, macrophages, eosinophils, etc. […] This was carried out with the help of a COX (human) inhibitor screening assay kit (Item no. 701230) from Cayman chemicals. […] A test substance concentration was considered to be inhibitive when it inhibited human COX-1 or COX-2 by 50%. The compound’s selectivity was measured by its selectivity index values, derived as IC50 (COX-1)/IC50 (COX-2).

[2] = system: A549 (human lung adenocarcinoma) cell line; assay: MTT anticancer assay, A549; type: cell-based
Experimental: (§1) The in vitro anticancer activity is determined by counting the viable cells that are stained with a vital dye. The MTT technique is an accurate measure of the activity of live cells using mitochondrial dehydrogenases. The target tumor cells A549 (human lung adenocarcinoma) and HEPG2 (human liver) cell lines are procured from the “National Centre for Cell Science” (NCCS, Pune). The sources of reagents like Trypsin, DMEM, Pen strip, and FBS are procured from Himedia. […] The culture medium was prepared, and the MTT assay was performed as per the general procedure described by Mosmann T. et al., [30] and the % viability of the cells was determined.
(§2) The target compounds tested for in vitro COX-2 were further checked for in vitro anti-cancer activity against A549 (lung cancer) and HepG2 (liver cancer) cell lines using MTT growth inhibition assay. The compounds were tested for cytotoxicity against both the cell lines at concentrations of 6.25, 12.5, 25, 50, and 100 µg/mL. […] Using the graph where % cell viability is plotted versus concentration, the IC50 values are determined with the help of the dose–response regression equation.

[3] = system: HEPG2 (human liver) cell line; assay: MTT anticancer assay, HepG2; type: cell-based
Experimental: as §1, §2

Sequence of BSA (bovine albumin serum) (P02769 25-607): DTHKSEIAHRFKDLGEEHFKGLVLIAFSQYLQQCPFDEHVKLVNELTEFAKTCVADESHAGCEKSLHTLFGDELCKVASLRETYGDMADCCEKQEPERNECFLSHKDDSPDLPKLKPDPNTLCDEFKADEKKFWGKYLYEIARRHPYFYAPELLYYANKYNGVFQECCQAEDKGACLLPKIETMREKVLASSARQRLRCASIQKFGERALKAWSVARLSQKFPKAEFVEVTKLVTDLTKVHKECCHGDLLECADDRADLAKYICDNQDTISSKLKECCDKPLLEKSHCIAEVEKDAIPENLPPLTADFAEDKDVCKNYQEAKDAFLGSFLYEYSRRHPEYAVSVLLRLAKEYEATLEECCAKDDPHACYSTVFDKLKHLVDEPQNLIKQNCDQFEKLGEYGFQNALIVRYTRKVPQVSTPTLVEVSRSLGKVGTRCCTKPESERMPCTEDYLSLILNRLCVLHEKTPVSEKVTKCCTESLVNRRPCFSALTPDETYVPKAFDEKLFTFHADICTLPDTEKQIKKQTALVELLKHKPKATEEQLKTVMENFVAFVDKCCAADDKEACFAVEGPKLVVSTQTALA

Compound: COc1ccc(-c2cc(C(=O)NN=Cc3ccc(Oc4ccccc4)cc3)nn2-c2ccc(S(N)(=O)=O)cc2)cc1 [Compound T2, 4-(5-(4-methoxyphenyl)-3-(2-(4-phenoxybenzylidene) hydrazine-1-carbonyl)-1H-pyrazol-1-yl) benzenesulfonamide]
% inhibition of albumin denaturation [1]: 81.77%
IC50 (Human COX-2): 12 µM
anti-cancer activity against A549 cell lines (in words) ([2]; A549): active
% cell viability ([2]; A549, 6.25 µg/ml): 95.63%
% cell viability ([2]; A549, 12.5 µg/ml): 81.83%
% cell viability ([2]; A549, 25 µg/ml): 54.02%
% cell viability ([2]; A549, 50 µg/ml): 33.98%
% cell viability ([2]; A549, 100 µg/ml): 18.25%
concentration at which compound was effective (from % inhibitory values) ([2]; A549 cell lines): 25 µg/mL
IC50 against A549 ([2]; MTT, A549): 31.49 µM
% cell viability ([3]; HepG2, 6.25 µg/ml): 78.42%
% cell viability ([3]; HepG2, 12.5 µg/ml): 77.90%
% cell viability ([3]; HepG2, 25 µg/ml): 71.82%
% cell viability ([3]; HepG2, 50 µg/ml): 67.10%
% cell viability ([3]; HepG2, 100 µg/ml): 64.39%
IC50 against HepG2 ([3]; MTT, HepG2): > 100 µM

Compound: COc1ccc(-c2cc(C(=O)NN=Cc3cccc(Oc4ccccc4)c3)nn2-c2ccc(S(N)(=O)=O)cc2)cc1 [Compound T1, 4-(5-(4-methoxyphenyl)-3-(2-(3-phenoxybenzylidene) hydrazine-1-carbonyl)-1H-pyrazol-1-yl) benzenesulfonamide]
% inhibition of albumin denaturation [1]: less than 50%

Compound: NS(=O)(=O)c1ccc(-n2nc(C(=O)NN=Cc3ccc(Cl)cc3O)cc2-c2ccccc2)cc1 [Compound T10, 4-(3-(2-(4-chloro-2-hydroxybenzylidene) hydrazine-1-carbonyl)-5-phenyl-1H pyrazol-1-yl) benzenesulfonamide]
% inhibition of albumin denaturation [1]: less than 50%

Compound: NS(=O)(=O)c1ccc(-n2nc(C(=O)NN=Cc3ccc(Oc4ccccc4)cc3)cc2-c2ccc(Cl)cc2)cc1 [Compound T8, 4-(5-(4-chlorophenyl)-3-(2-(4-phenoxybenzylidene) hydrazine-1-carbonyl)-1H-pyrazol-1-yl) benzenesulfonamide]
% inhibition of albumin denaturation [1]: less than 50%

% inhibition of albumin denaturation [1]: 61.05%
IC50 (Human COX-2): 2.54 µM
IC50 ([2]; Homo sapiens, MTT, A549, read-out: IC50 against A549): > 100 µg/mL
IC50 ([3]; Homo sapiens, MTT, HepG2, read-out: IC50 against HepG2): < 6.25 µg/mL
Compound: Cc1cc(C=NNC(=O)c2cc(-c3ccc(Cl)cc3)n(-c3ccc(S(N)(=O)=O)cc3)n2)cc(C)c1OCc1ccccc1 [Compound T6, 4-(3-(2-(4-(benzyloxy)-3,5-dimethylbenzylidene) hydrazine-1-carbonyl)-5-(4-chlorophenyl)-1H-pyrazol-1-yl)benzenesulfonamide]
viability at 6.25 µg/mL ([2]; Homo sapiens, A549, 6.25 µg/ml): 97.7%
viability at 12.5 µg/mL ([2]; Homo sapiens, A549, 12.5 µg/ml): 87%
viability at 25 µg/mL ([2]; Homo sapiens, A549, 25 µg/ml): 78.8%
viability at 50 µg/mL ([2]; Homo sapiens, A549, 50 µg/ml): 74.6%
viability at 100 µg/mL ([2]; Homo sapiens, A549, 100 µg/ml): 63.4%
anti-cancer activity against HepG2 cell line (in words) ([3]; HepG2): active
viability at 6.25 µg/mL ([3]; Homo sapiens, HepG2, 6.25 µg/ml): 24.1%
viability at 12.5 µg/mL ([3]; Homo sapiens, HepG2, 12.5 µg/ml): 11%
viability at 25 µg/mL ([3]; Homo sapiens, HepG2, 25 µg/ml): 2.99%
viability at 50 µg/mL ([3]; Homo sapiens, HepG2, 50 µg/ml): 2.87%
viability at 100 µg/mL ([3]; Homo sapiens, HepG2, 100 µg/ml): 2.62%

Compound: NS(=O)(=O)c1ccc(-n2nc(C(=O)NN=Cc3cccc(Oc4ccccc4)c3)cc2-c2ccc(Br)cc2)cc1 [Compound T4, 4-(5-(4-bromophenyl)-3-(2-(3-phenoxybenzylidene) hydrazine-1-carbonyl)-1H-pyrazol-1-yl) benzenesulfonamide]
% inhibition of albumin denaturation [1]: less than 50%

Compound: NS(=O)(=O)c1ccc(-n2nc(C(=O)NN=Cc3ccc(Oc4ccccc4)cc3)cc2-c2ccc(Br)cc2)cc1 [Compound T7, 4-(5-(4-bromophenyl)-3-(2-(4-phenoxybenzylidene) hydrazine-1-carbonyl)-1H-pyrazol-1-yl) benzenesulfonamide]
% inhibition of albumin denaturation [1]: less than 50%

Compound: NS(=O)(=O)c1ccc(-n2nc(C(=O)NN=Cc3ccc(Cl)cc3O)cc2-c2ccc(Br)cc2)cc1 [Compound T9, 4-(5-(4-bromophenyl)-3-(2-(4-chloro-2-hydroxybenzylidene) hydrazine-1-carbonyl)-1H-pyrazol-1-yl) benzenesulfonamide]
% inhibition of albumin denaturation [1]: 67.77%
IC50 (Human COX-2): 3.5 µM
% cell viability ([2]; A549, 6.25 µg/ml): 91.72%
% cell viability ([2]; A549, 12.5 µg/ml): 84.82%
% cell viability ([2]; A549, 25 µg/ml): 76.64%
% cell viability ([2]; A549, 50 µg/ml): 66.94%
% cell viability ([2]; A549, 100 µg/ml): 54.57%
IC50 against A549 ([2]; MTT, A549): > 100 µM
% cell viability ([3]; HepG2, 6.25 µg/ml): 85.46%
% cell viability ([3]; HepG2, 12.5 µg/ml): 84.90%
% cell viability ([3]; HepG2, 25 µg/ml): 79.30%
% cell viability ([3]; HepG2, 50 µg/ml): 67.24%
% cell viability ([3]; HepG2, 100 µg/ml): 54.42%
IC50 against HepG2 ([3]; MTT, HepG2): > 100 µM

Reference: paper PMC11048033, “Dual Anti-Inflammatory and Anticancer Activity of Novel 1,5-Diaryl Pyrazole Derivatives: Molecular Modeling, Synthesis, In Vitro Activity, and Dynamics Study” (Biomedicines, 2024)
